According to US20250134890A1, “ANTIMALARIAL HEXAHYDROPYRIMIDINE ANALOGUES” (UCB BIOPHARMA SRL, priority 2022, published 2025):
Counter-ions that a name gives are not always drawn.

system: Plasmodium falciparum: 3D7 strain; experiment: P. falciparum 3D7 asexual blood stage assay (SYBR green readout); assay type: cell-based; conditions: Plasmodium falciparum, 3D7, Erythrocyte, 72 h, P. falciparum 3D7 in human erythrocytes, 72 h incubation, SYBR green fluorescence
Excerpt: The compounds of the present invention are potent inhibitors of the growth and propagation of the Plasmodium falciparum parasite in human blood.
The assay used to measure the effect of test compounds on a bloodstream stage of Plasmodium falciparum: 3D7 strain employs SYBR green as the readout. This is a dye that binds to double stranded deoxyribonucleic acid (DNA) with a resulting increase in fluorescence, allowing detection of P. falciparum DNA in infected erythrocytes, and thereby providing a measure of parasite growth and propagation.
Erythrocytes (A+blood) were prepared for both parasite culture and assay by washing 4 times with incomplete media (15.9 g RPMI 1640 (25 mM HEPES, L-glutamine), 1 g NaHCO3, 2 g glucose, 400 μL gentacin (500 mg/mL), 2 mL hypoxanthine solution (13.6 g/L in 0.1M NaOH pH 7.3) in 1 litre of media). The cells were centrifuged at 1800 g for 5 minutes, before decanting the supernatant and re-suspending in fresh incomplete media. On the final wash, the cells were re-suspended in complete media (incomplete media with 5 g/L AlbumaxII), and centrifuged at 1800 g for 3 minutes. This cell sediment was treated as 100% haematocrit.
P. falciparum 3D7 was cultured in erythrocytes at 5% haematocrit in complete media at 37° C. (1% O2, 3% CO2, balance N2). Cultures were split on a weekly basis to achieve a 1% parasitaemia in erythrocites at 5% haematocrit in fresh media. Culture media is replaced by fresh media every other day (2 times during the week).
On day 1, test compounds were added to assay plates using Echo dispensing technology ([…] and 20 points titration). 50 nL of each compound dilution was added to 50 μL of culture (5% haematocrit, 0.5% parasitaemia) and incubated for 72 h at 37° C. (1% O2, 3% CO2, balance N2). Final concentrations of test compounds ranged from 50,000 nM to 15 nM, in […].
On day 4, 10 μL SYBR green (Invitrogen S7563 supplied as 10,000×concentrate in DMSO) pre-diluted to 3×concentrate with Lysis buffer (20 mM Tris pH 7.9, 5% EDTA, 0.16% w/v, 1.6% TX100 v/v) was added to the cultures and incubated in the dark, overnight, at room temperature.
On day 5, fluorescent signal was measured using a BioTek plate reader (excitation 485 nm, emission 528 nm). All data were processed using IDBS ActivityBase. Raw data were converted into percent inhibition through linear regression by setting the high inhibition control (mefloquine) as 100% and the no inhibition control (DMSO) as 0%. Quality control criteria for passing plates were as follows: Z′>0.5, S:B>3, % CV(no inhibition control)<15. The formula used to calculate Z′ is: […]
All EC50 curve fitting was undertaken using the following bi-phasic two site dose response using XLfit model 300 (IDBS):
where A=100 minus the top of the upper curve 1 and the bottom of lower curve; B=Hill slope; log(C)=IC50 concentration at lower site; log(D)=IC50 concentration at upper site; x=inhibitor concentration; and y=% inhibition.

Compared with `C[C@H]1C[C@H](N2C(=N)N[C@](C)(c3cccc(-c4ccc(F)cc4F)c3Cl)CC2=O)CCS1(=O)=O` (relative stereo) [Example 65, (6S)-6-[2-Chloro-3-(2,4-difluoro-phenyl)phenyl]-2-imino-6-methyl-3-[(2S*,4R*)-2-methyl-1,1-dioxo-thian-4-yl]hexahydropyrimidin-4-one hydrochloride], `C[C@H]1C[C@@H](N2C(=N)N[C@](C)(c3cccc(-c4ccc(F)cc4F)c3Cl)CC2=O)CCN1C` (relative stereo) [Example 106, (6S)-6-[2-Chloro-3-(2,4-difluoro-phenyl)phenyl]-3-[(2S*,4S*)-1,2-dimethylpiperidin-4-yl]-2-imino-6-methylhexahydropyrimidin-4-one hydrochloride] is 14-fold lower in IC50: 1300 nM for the first, 94 nM for the second.

Going from `C[C@H]1C[C@@H](N2C(=N)N[C@](C)(c3cccc(-c4cn(CC5CC(F)(F)C5)nn4)c3Cl)CC2=O)CCO1` [Example 116, (6S)-6-(2-Chloro-3-{1-[(3,3-difluorocyclobutyl)methyl]-1,2,3-triazol-4-yl}phenyl)-2-imino-6-methyl-3-[(2S,4S)-2-methyl-tetrahydropyran-4-yl]hexahydro-pyrimidin-4-one trifluoroacetic acid salt] to `C[C@H]1C[C@@H](N2C(=N)N[C@](C)(c3cccc(-c4cn(CCN5CCCC5)nn4)c3Cl)CC2=O)CCO1` [Example 118, (6S)-6-(2-Chloro-3-{1-[2-(pyrrolidin-1-yl)ethyl]-1,2,3-triazol-4-yl}phenyl)-2-imino-6-methyl-3-[(2S,4S)-2-methyl-tetrahydropyran-4-yl]hexahydro-pyrimidin-4-one trifluoroacetic acid salt], the IC50 rises from 208 nM to 1010 nM (4.9-fold).

Compared with `C[C@H]1C[C@@H](N2C(=N)N[C@](C)(c3cccc(-c4ccncc4Cl)c3Cl)CC2=O)CCO1` [Example 57, (6S)-6-[2-Chloro-3-(3-chloro-pyridin-4-yl)phenyl]-2-imino-6-methyl-3-[(2S,4S)-2-methyl-tetrahydropyran-4-yl]hexahydro-pyrimidin-4-one trifluoroacetic acid salt], `C[C@H]1C[C@@H](N2C(=N)N[C@](C)(c3cccc(-c4ccccc4Cl)c3Cl)CC2=O)CCO1` [Example 46, (6S)-6-[2-Chloro-3-(2-chloro-phenyl)phenyl]-2-imino-6-methyl-3-[(2S,4S)-2-methyltetrahydro-pyran-4-yl]hexahydropyrimidin-4-one trifluoroacetic acid salt] is 1.7-fold higher in IC50: 61 nM for the first, 105 nM for the second.

`C[C@H]1C[C@@H](N2C(=N)N[C@](C)(c3cccc(-c4ccccc4C(F)(F)F)c3Cl)CC2=O)CCO1` [Example 37, (6S)-6-{2-Chloro-3-[2-(trifluoro-methyl)phenyl]phenyl}-2-imino-6-methyl-3-[(2S,4S)-2-methyl-tetrahydropyran-4-yl]hexahydro-pyrimidin-4-one trifluoroacetic acid salt] and `C[C@H]1C[C@@H](N2C(=N)N[C@](C)(c3cccc(-c4ccc(OC(F)(F)F)cc4Cl)c3Cl)CC2=O)CCO1` [Example 2, (6S)-6-{2-Chloro-3-[2-chloro-4-(trifluoromethoxy)phenyl]phenyl}-2-imino-6-methyl-3-[(2S,4S)-2-methyltetrahydropyran-4-yl]-hexahydropyrimidin-4-one hydrochloride] are within 1.5-fold of each other in IC50: 67 nM for the first, 78 nM for the second.

First: C[C@@H]1C[C@H](N2C(=N)N[C@](C)(c3cccc(-c4ccc(OC(F)(F)F)nc4)c3Cl)CC2=O)CCS1(=O)=O (relative stereo) [Example 79, (6S)-6-{2-Chloro-3-[6-(trifluoro-methoxy)pyridin-3-yl]phenyl}-2-imino-6-methyl-3-[(2R*,4R*)-2-methyl-1,1-dioxothian-4-yl]-hexahydropyrimidin-4-one hydrochloride]
Second: C[C@@H]1C[C@@H](N2C(=N)N[C@](C)(c3cccc(-c4ccc(OC(F)(F)F)nc4)c3Cl)CC2=O)CCS1(=O)=O (relative stereo) [Example 81, (6S)-6-{2-Chloro-3-[6-(trifluoro-methoxy)pyridin-3-yl]phenyl}-2-imino-6-methyl-3-[(2R*,4S*)-2-methyl-1,1-dioxothian-4-yl]-hexahydropyrimidin-4-one hydrochloride]
The IC50 of the first is 3.9-fold lower: 107 nM for the first, 420 nM for the second. The first is the more potent here.

Compared with `C[C@H]1C[C@@H](N2C(=N)N[C@](C)(c3cccc(-c4cccc5ccccc45)c3Cl)CC2=O)CCO1` [Example 35, (6S)-6-[2-Chloro-3-(naphth-1-yl)-phenyl]-2-imino-6-methyl-3-[(2S,4S)-2-methyltetrahydropyran-4-yl]hexahydropyrimidin-4-one trifluoroacetic acid salt], `C[C@H]1C[C@@H](N2C(=N)N[C@](C)(c3cccc(-c4ccc(F)c(F)c4)c3Cl)CC2=O)CCO1` [Example 38, (6S)-6-[2-Chloro-3-(3,4-difluoro-phenyl)phenyl]-2-imino-6-methyl-3-[(2S,4S)-2-methyltetrahydro-pyran-4-yl]hexahydropyrimidin-4-one trifluoroacetic acid salt] is 2.6-fold lower in IC50: 355 nM for the first, 135 nM for the second. The second is the more potent here.

`COc1cncc(-c2cccc([C@]3(C)CC(=O)N([C@H]4CCO[C@@H](C)C4)C(=N)N3)c2Cl)c1` [Example 58, (6S)-6-[2-Chloro-3-(5-methoxy-pyridin-3-yl)phenyl]-2-imino-6-methyl-3-[(2S,4S)-2-methyl-tetrahydropyran-4-yl]hexahydro-pyrimidin-4-one trifluoroacetic acid salt] and `C[C@H]1C[C@@H](N2C(=N)N[C@](C)(c3cccc(-c4cncnc4)c3Cl)CC2=O)CCO1` [Example 41, (6S)-6-[2-Chloro-3-(pyrimidin-5-yl)phenyl]-2-imino-6-methyl-3-[(2S,4S)-2-methyltetrahydropyran-4-yl]hexahydropyrimidin-4-one trifluoroacetic acid salt] are within 1.5-fold of each other in IC50: 124 nM for the first, 145 nM for the second.

Going from `C[C@H]1C[C@@H](N2C(=N)N[C@](C)(c3cccc(-c4ccc(OC(F)(F)F)nc4)c3Cl)CC2=O)CCS1(=O)=O` (relative stereo) [Example 78, (6S)-6-{2-Chloro-3-[6-(trifluoro-methoxy)pyridin-3-yl]phenyl}-2-imino-6-methyl-3-[(2S*,4S*)-2-methyl-1,1-dioxothian-4-yl]-hexahydropyrimidin-4-one hydrochloride] to `C[C@H]1C[C@@H](N2C(=N)N[C@](C)(c3cccc(-c4ccc(OC(F)F)nc4)c3Cl)CC2=O)CCS1(=O)=O` (relative stereo) [Example 71, (6S)-6-{2-Chloro-3-[6-(difluoro-methoxy)pyridin-3-yl]phenyl}-2-imino-6-methyl-3-[(2S*,4S*)-2-methyl-1,1-dioxothian-4-yl]-hexahydropyrimidin-4-one hydrochloride], the IC50 falls from 365 nM to 151 nM (2.4-fold).

`C[C@H]1C[C@@H](N2C(=N)N[C@](C)(c3cccc(-c4cn([C@@H](C)c5cccnc5)nn4)c3Cl)CC2=O)CCO1` [Example 115, (6S)-6-(2-Chloro-3-{1-[(1S)-1-(pyridin-3-yl)ethyl]-1,2,3-triazol-4-yl}phenyl)-2-imino-6-methyl-3-[(2S,4S)-2-methyltetrahydropyran-4-yl]hexahydropyrimidin-4-one trifluoroacetic acid salt] and `C[C@H]1C[C@@H](N2C(=N)N[C@](C)(c3cccc(-c4cccc(Cl)c4)c3Cl)CC2=O)CC[C@H]1O` (relative stereo) [Example 8, (6S)-6-[2-Chloro-3-(3-chloro-phenyl)phenyl]-3-[(1S*,3S*,4R*)-4-hydroxy-3-methylcyclohexyl]-2-imino-6-methylhexahydro-pyrimidin-4-one hydrochloride] are within 1.5-fold of each other in IC50: 210 nM for the first, 247 nM for the second.
